Test system: NCI-H1876 tumor spheroid viability
Assay: Anticancer human tumor NCI-H1876 cell line growth inhibition;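 further: spheroids exposed to compounds for seven days before the viability read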;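 on viability, T/C: percent of DMSO vehicle control viability so 100% = vehicle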
Conditions: spheroids with HUVEC and MSC; for IC50: curve of first compound; for viability, T/C: stronger effect = lower value
In short: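 Complex tumor spheroids combined malignant cells with endothelial cells and mesenchymal stem cells. DNA-damaging drugs and DNA repair inhibitors were tested alone and in combination, at half-log dilutions down from clinical Cmax (top 10 microM if Cmax unknown), 0.25% DMSO final.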

[1] = second compound 30 pM, first compound 0.00949 µM
[2] = second compound 30 pM, first compound 0.03 µM
[3] = second compound 30 pM, first compound 0.0949 µM
[4] = second compound 30 pM, first compound 0.3 µM
[5] = second compound 30 pM, first compound 0.949 µM
[6] = second compound 30 pM, first compound 3 µM
[7] = second compound 94.9 pM, first compound 0.00949 µM
[8] = second compound 94.9 pM, first compound 0.03 µM
[9] = second compound 94.9 pM, first compound 0.0949 µM
[10] = second compound 94.9 pM, first compound 0.3 µM
[11] = second compound 94.9 pM, first compound 0.949 µM
[12] = second compound 94.9 pM, first compound 3 µM
[13] = second compound 0.0003 µM, first compound 0.00949 µM
[14] = second compound 0.0003 µM, first compound 0.03 µM
[15] = second compound 0.0003 µM, first compound 0.0949 µM
[16] = second compound 0.0003 µM, first compound 0.3 µM
[17] = second compound 0.0003 µM, first compound 0.949 µM
[18] = second compound 0.0003 µM, first compound 3 µM
[19] = second compound 0.000949 µM, first compound 0.00949 µM
[20] = second compound 0.000949 µM, first compound 0.03 µM
[21] = second compound 0.000949 µM, first compound 0.0949 µM
[22] = second compound 0.000949 µM, first compound 0.3 µM
[23] = second compound 0.000949 µM, first compound 0.949 µM
[24] = second compound 0.000949 µM, first compound 3 µM
[25] = second compound 0.003 µM, first compound 0.00949 µM
[26] = second compound 0.003 µM, first compound 0.03 µM
[27] = second compound 0.003 µM, first compound 0.0949 µM
[28] = second compound 0.003 µM, first compound 0.3 µM
[29] = second compound 0.003 µM, first compound 0.949 µM
[30] = second compound 0.003 µM, first compound 3 µM

## CNCc1ccc(-c2cc(-c3nc(-c4ccc(S(=O)(=O)C(C)C)cc4)cnc3N)on2)cc1 + COc1cc2c(cc1O)CCNC21CSC2c3c(OC(C)=O)c(C)c4c(c3C(COC1=O)N1C(O)C3Cc5cc(C)c(OC)c(O)c5C(C21)N3C)OCO4
Second compound 30 pM
  IC50: 571 nM
Second compound 94.9 pM
  IC50: 223 nM
Second compound 0.0003 µM
  IC50: < 9.49 nM
Second compound 0.000949 µM
  IC50: < 9.49 nM
Second compound 0.003 µM
  IC50: < 9.49 nM
[1]
  viability, T/C: 103%
[2]
  viability, T/C: 103%
[3]
  viability, T/C: 97.8%
[4]
  viability, T/C: 67.2%
[5]
  viability, T/C: 36.5%
[6]
  viability, T/C: 16.2%
[7]
  viability, T/C: 94.4%
[8]
  viability, T/C: 89%
[9]
  viability, T/C: 70.5%
[10]
  viability, T/C: 42.5%
[11]
  viability, T/C: 21.2%
[12]
  viability, T/C: 10.1%
[13]
  viability, T/C: 27.9%
[14]
  viability, T/C: 24.4%
[15]
  viability, T/C: 16.4%
[16]
  viability, T/C: 12.7%
[17]
  viability, T/C: 9.09%
[18]
  viability, T/C: 6.61%
[19]
  viability, T/C: 4.01%
[20]
  viability, T/C: 3.41%
[21]
  viability, T/C: 3.12%
[22]
  viability, T/C: 3.01%
[23]
  viability, T/C: 4.43%
[24]
  viability, T/C: 2.48%
[25]
  viability, T/C: 0.56%
[26]
  viability, T/C: 1.11%
[27]
  viability, T/C: 1.21%
[28]
  viability, T/C: 0.84%
[29]
  viability, T/C: 0.9%
[30]
  viability, T/C: 0.8%

## CC(C)n1c(=O)n(C)c2cnc3cc(F)c(-c4ccc(OCCCN5CCCCC5)nc4)cc3c21 + COc1cc2c(cc1O)CCNC21CSC2c3c(OC(C)=O)c(C)c4c(c3C(COC1=O)N1C(O)C3Cc5cc(C)c(OC)c(O)c5C(C21)N3C)OCO4
Second compound 30 pM
  IC50: > 10000 nM
Second compound 94.9 pM
  IC50: > 10000 nM
Second compound 0.0003 µM
  IC50: < 31.6 nM
Second compound 0.000949 µM
  IC50: < 31.6 nM
Second compound 0.003 µM
  IC50: < 31.6 nM
Second compound 30 pM, first compound 0.0316 µM
  viability, T/C: 94%
Second compound 30 pM, first compound 0.1 µM
  viability, T/C: 93.1%
Second compound 30 pM, first compound 0.316 µM
  viability, T/C: 95%
Second compound 30 pM, first compound 1 µM
  viability, T/C: 95.5%
Second compound 30 pM, first compound 3.16 µM
  viability, T/C: 93.7%
Second compound 30 pM, first compound 10 µM
  viability, T/C: 86.7%
Second compound 94.9 pM, first compound 0.0316 µM
  viability, T/C: 66.3%
Second compound 94.9 pM, first compound 0.1 µM
  viability, T/C: 58.5%
Second compound 94.9 pM, first compound 0.316 µM
  viability, T/C: 49.3%
Second compound 94.9 pM, first compound 1 µM
  viability, T/C: 53.5%
Second compound 94.9 pM, first compound 3.16 µM
  viability, T/C: 55.2%
Second compound 94.9 pM, first compound 10 µM
  viability, T/C: 46.8%
Second compound 0.0003 µM, first compound 0.0316 µM
  viability, T/C: 10.7%
Second compound 0.0003 µM, first compound 0.1 µM
  viability, T/C: 9.04%
Second compound 0.0003 µM, first compound 0.316 µM
  viability, T/C: 11%
Second compound 0.0003 µM, first compound 1 µM
  viability, T/C: 9.85%
Second compound 0.0003 µM, first compound 3.16 µM
  viability, T/C: 12.3%
Second compound 0.0003 µM, first compound 10 µM
  viability, T/C: 9.65%
Second compound 0.000949 µM, first compound 0.0316 µM
  viability, T/C: 2.08%
Second compound 0.000949 µM, first compound 0.1 µM
  viability, T/C: 1.93%
Second compound 0.000949 µM, first compound 0.316 µM
  viability, T/C: 1.77%
Second compound 0.000949 µM, first compound 1 µM
  viability, T/C: 1.8%
Second compound 0.000949 µM, first compound 3.16 µM
  viability, T/C: 2.69%
Second compound 0.000949 µM, first compound 10 µM
  viability, T/C: 2.47%
Second compound 0.003 µM, first compound 0.0316 µM
  viability, T/C: 0.9%
Second compound 0.003 µM, first compound 0.1 µM
  viability, T/C: 0.67%
Second compound 0.003 µM, first compound 0.316 µM
  viability, T/C: 0.58%
Second compound 0.003 µM, first compound 1 µM
  viability, T/C: 0.77%
Second compound 0.003 µM, first compound 3.16 µM
  viability, T/C: 0.63%
Second compound 0.003 µM, first compound 10 µM
  viability, T/C: 1.09%

## Cc1sc2c(c1C)C(c1ccc(Cl)cc1)=NC(CC(=O)Nc1ccc(O)cc1)c1nnc(C)n1-2 (stereo not given) + COc1cc2c(cc1O)CCNC21CSC2c3c(OC(C)=O)c(C)c4c(c3C(COC1=O)N1C(O)C3Cc5cc(C)c(OC)c(O)c5C(C21)N3C)OCO4
Second compound 30 pM
  IC50: 265 nM
Second compound 94.9 pM
  IC50: 148 nM
Second compound 0.0003 µM
  IC50: < 9.49 nM
Second compound 0.000949 µM
  IC50: < 9.49 nM
Second compound 0.003 µM
  IC50: < 9.49 nM
[1]
  viability, T/C: 104%
[2]
  viability, T/C: 108%
[3]
  viability, T/C: 104%
[4]
  viability, T/C: 43.3%
[5]
  viability, T/C: 17.1%
[6]
  viability, T/C: 8.32%
[7]
  viability, T/C: 100%
[8]
  viability, T/C: 95.4%
[9]
  viability, T/C: 60.6%
[10]
  viability, T/C: 30.8%
[11]
  viability, T/C: 9.48%
[12]
  viability, T/C: 5.87%
[13]
  viability, T/C: 29.3%
[14]
  viability, T/C: 23.2%
[15]
  viability, T/C: 22.7%
[16]
  viability, T/C: 4.78%
[17]
  viability, T/C: 2.87%
[18]
  viability, T/C: 3.05%
[19]
  viability, T/C: 3.88%
[20]
  viability, T/C: 2.86%
[21]
  viability, T/C: 1.98%
[22]
  viability, T/C: 2.62%
[23]
  viability, T/C: 1.67%
[24]
  viability, T/C: 2.3%
[25]
  viability, T/C: 0.46%
[26]
  viability, T/C: 0.43%
[27]
  viability, T/C: 0.51%
[28]
  viability, T/C: 0.57%
[29]
  viability, T/C: 0.25%
[30]
  viability, T/C: 0.65%

## Cn1ncnc1[C@H]1c2n[nH]c(=O)c3cc(F)cc(c23)N[C@@H]1c1ccc(F)cc1 + COc1cc2c(cc1O)CCNC21CSC2c3c(OC(C)=O)c(C)c4c(c3C(COC1=O)N1C(O)C3Cc5cc(C)c(OC)c(O)c5C(C21)N3C)OCO4
Second compound 30 pM
  IC50: 35.5 nM
Second compound 94.9 pM
  IC50: < 9.49 nM
Second compound 0.0003 µM
  IC50: < 9.49 nM
Second compound 0.000949 µM
  IC50: < 9.49 nM
Second compound 0.003 µM
  IC50: < 9.49 nM
[1]
  viability, T/C: 80.3%
[2]
  viability, T/C: 53.5%
[3]
  viability, T/C: 28.6%
[4]
  viability, T/C: 11.9%
[5]
  viability, T/C: 6.01%
[6]
  viability, T/C: 3.44%
[7]
  viability, T/C: 47.9%
[8]
  viability, T/C: 28.1%
[9]
  viability, T/C: 15.5%
[10]
  viability, T/C: 7.46%
[11]
  viability, T/C: 5.44%
[12]
  viability, T/C: 2.76%
[13]
  viability, T/C: 11.8%
[14]
  viability, T/C: 7.22%
[15]
  viability, T/C: 5.49%
[16]
  viability, T/C: 4.25%
[17]
  viability, T/C: 5.23%
[18]
  viability, T/C: 2.79%
[19]
  viability, T/C: 2.86%
[20]
  viability, T/C: 3.01%
[21]
  viability, T/C: 2.85%
[22]
  viability, T/C: 3.24%
[23]
  viability, T/C: 2.36%
[24]
  viability, T/C: 1.56%
[25]
  viability, T/C: 0.64%
[26]
  viability, T/C: 0.8%
[27]
  viability, T/C: 0.45%
[28]
  viability, T/C: 0.68%
[29]
  viability, T/C: 1.05%
[30]
  viability, T/C: 0.79%

Source: PubChem BioAssay AID1845207 (Molecular Pharmacology Branch, DTP, NCI, 2023)
